From patent publication US20220125764A1, “PHARMACEUTICAL COMPOSITION COMPRISING BENZIMIDAZOLE DERIVATIVE COMPOUND” (HK INNO.N CORPORATION, priority 2019, published 2022)

Key:
[1] = system: erosive gastroesophageal reflux disease; assay: Double-blinded, randomized, active-controlled maintenance therapy trial in subjects with treated erosive gastroesophageal reflux disease (Example 2); assay type: in vivo, human; conditions: for subjects with erosion observed by upper gastrointestinal endoscopy: test group (tegoprazan 25 mg, at least 17 subjects) and control group (lansoprazole 15 mg) pooled, total 37 subjects; for symptom evaluation: symptoms of heartburn and gastric acid reflux while taking the drug: all the subjects of the group, once a day for four weeks, tegoprazan 25 mg, lansoprazole 15 mg
Protocol: A double-blinded, randomized and active controlled study was designed to identify an effect of 25 mg of tegoprazan on maintenance therapy for gastroesophageal reflux disease.
(2) a person who is diagnosed with erosive gastroesophageal reflux disease (LA grade A-D) through upper gastrointestinal endoscopy within 12 weeks based on random group allocation (visit 2);
(3) a person who is identified as having erosive gastroesophageal reflux disease treated through upper gastrointestinal endoscopy within seven days based on random group allocation (visit 2) (a person who is identified the cure of erosion after administration of a standard dose of therapeutic agents for erosive gastroesophageal reflux disease (PPI, P-CAB, etc.) for 4-8 weeks due to a typical symptom of gastroesophageal reflux disease and erosive gastroesophageal reflux disease);
The clinical trial was performed in a double-blinded, randomized, active-controlled and multi-center clinical trial manner, and the clinical trial may be schematized as shown in FIG. 1.
The subjects were classified using stratified block randomization based on LA grades identified by upper gastrointestinal endoscopy performed within 12 weeks before the random allocation on visit (visit 2). Each group was administered with the drug for 24 weeks.
As identified in the table above, the test group was orally dosed with 25 mg of tegoprazan tablet (Preparation Example 1)/lansoprazole 15 mg placebo (Preparation Example 4), and the control group was orally dosed with 25 mg of tegoprazan placebo (Preparation Example 2)/lansoprazole 15 mg capsule (Preparation Example 3).
The subjects randomly allocated to each group took the prescribed clinical trial drug once a day at a regular time from the first day of prescription. A diary on the trial subjects was kept from the start day of taking the clinical trial drug.
During a visit in 4 weeks (visit 3), 12 weeks (visit 4) and 24 weeks (visit 5) later, subjects paid a visit on an empty stomach without taking the clinical trial drug, then received a scheduled test, then were newly prescribed the same drug, then took it from the very day, then received a test in their visit in 24 weeks (visit 5) later, and then stopped the administration.
In four weeks (visit 3) after administering the clinical trial drug, endoscopy was not performed, but clinical laboratory tests (hematologic test, blood chemistry test, blood coagulation test, urine test, hepatitis test, etc.) and evaluation of symptoms were performed. In 12 weeks (visit 4) and 24 weeks (visit 5) later, it was checked whether erosion recurred or not through the upper gastrointestinal endoscopy, and the clinical laboratory test, evaluation of symptoms and the like were performed. Clinical trial subjects took the clinical trial drug for up to 24 weeks and then entered into a safety follow-up (f/u) period, in which the f/u was performed (by phone or visit) in two weeks after the last administration.
(1) Endoscopic remission: No recurrence of erosion (LA grade A-D) observed through upper gastrointestinal endoscopy during a maintenance period (12 weeks)
(1) Rate of subjects without main symptoms (heartburn and gastric acid reflux)
Rate of subjects without main symptoms=(Subjects without main symptoms expressed/Number of clinical trial subjects whose symptoms were evaluated during a maintenance period after administration of the clinical trial drug)×100

gastric pH = assay: 24-hour gastric pH monitoring after repeated oral dosing in healthy male volunteers (Example 1); assay type: in vivo, human; conditions: for HTR > pH4 (%) Mean: time for which pH of gastric fluid exceeds and maintains 4 based on 24 hours: healthy male volunteers
Protocol: Tegoprazan and esomeprazole were orally administered for 7 days as shown in table 1 (an open-label, active controlled, parallel design and repeated dose).
There occurred neither serious adverse reactions nor dropouts caused thereby while this clinical trial was in progress. With regard to a gastric pH, a time for which the gastric pH exceeds 4 was evaluated during an observation period for the gastric pH.
After evaluating pharmacokinetic parameters, the time (%) for which a pH of gastric fluid exceeds and maintains 4 based on 24 hours is the same as shown in the following table 2.

Structure (SMILES)	subjects with erosion observed by upper gastrointestinal endoscopy ([1]; 12 weeks)	symptom evaluation: symptoms of heartburn and gastric acid reflux while taking the drug [1]	maintenance effect after four weeks of administration ([1]; 25 mg once a day, 4 weeks)	maintenance effect (endoscopic remission maintenance) after twelve weeks of administration ([1]; 25 mg once a day, 12 weeks)	inhibition of the recurrence of gastroesophageal reflux disease ([1]; 25 mg, conclusion from 12-week endoscopy)	HTR > pH4 (%) Mean: time for which pH of gastric fluid exceeds and maintains 4 based on 24 hours (gastric pH; Day 1, 25 mg once a day orally) [%]	HTR > pH4 (%) Mean: time for which pH of gastric fluid exceeds and maintains 4 based on 24 hours (gastric pH; Day 7, 25 mg once a day orally for seven days) [%]	average of time for which the gastric pH exceeds 4 (Time pH>4, %) (gastric pH; from day 1 after the administration, 25 mg, observed for 24 hours)
Cc1c(OCC(F)(F)F)ccnc1C[S+]([O-])c1nc2ccccc2[nH]1 (stereo not shown) [lansoprazole, reference compound]	only one subject among the total 37 subjects	had not experienced symptoms of heartburn and gastric acid reflux	–	–	–	–	–	–
Cc1nc2cc(C(=O)N(C)C)cc(O[C@H]3CCOc4cc(F)cc(F)c43)c2[nH]1 [tegoprazan, (S)-4-(5,7-difluorochroman-4-yloxy)-N,N,2-trimethyl-1H-benzo[d]imidazole-6-carboxamide]	only one subject among the total 37 subjects	had not experienced symptoms of heartburn and gastric acid reflux	demonstrated a maintenance effect	A maintenance effect was observed	effectively inhibits the recurrence of gastroesophageal reflux disease	40.6	56.6	at least 40%
